Results taken from patent US20260132125A1, “PESTICIDALLY ACTIVE FUSED BICYCLIC HETEROAROMATIC COMPOUNDS” (priority 2022, published 2026).

Key:
Type in all cases: in vivo
Spodoptera littoralis = test: Example B6: activity against Spodoptera littoralis (Egyptian cotton leaf worm), cotton leaf discs; conditions: foliar, 72 h, 200 ppm, L1 larvae, 3 days after infestation, read-out: control (at least one of mortality, anti-feedant effect, growth inhibition)
Procedure, shortened: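 Leaf discs on agar sprayed with aqueous dilutions of 10′000 ppm DMSO stocks, dried, then infested with five L1 larvae. Mortality, anti-feeding and growth inhibition scored versus untreated 3 days after infestation; control given when any category exceeds untreated.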

Diabrotica balteata = test: Example B2: activity against Diabrotica balteata (corn root worm), maize sprouts; conditions: 96 h, L2 larvae, 4 days after infestation, read-out: effect in at least one of the two categories (mortality or growth inhibition)
Procedure, shortened: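 Maize sprouts on agar were sprayed with aqueous test solutions made from 10′000 ppm DMSO stocks, dried, then infested with 6–10 L2 larvae per well. Mortality and growth inhibition were scored against untreated samples 4 days after infestation, at an application rate of 200 ppm.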

Myzus persicae [1] = test: Example B4: activity against Myzus persicae (green peach aphid), intrinsic activity; conditions: 120 h, test rate 12 ppm, 5 days after infestation
Procedure, shortened: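 Compounds from 10′000 ppm DMSO stocks were mixed into sucrose solution in 24-well plates sealed with Parafilm. Aphid-infested pea seedlings were set on the membrane and the plate inverted so aphids fed through it. Mortality scored 5 days after infestation.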

Pseudoplusia includens = test: Example B9: Pseudoplusia includens (soybean looper), larvicide, feeding/contact, soybean plants; conditions: Chrysodeixis includens; for percent effect (mortality or growth inhibition) at 50 ppm: 120 h, L2 larvae, 5 days after infestation, read-out: effect in at least one of the two categories (mortality or growth inhibition)
Procedure, shortened: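 Soybean plants sprayed, cut and held in dishes on wet filter paper; infested 1 d after application with 5 L2 larvae. Mortality and growth inhibition assessed 5 days after infestation; tested at 50 ppm.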

[2] = tested on: Carpocapsa (Cydia) pomonella; test: Example B10: Carpocapsa (Cydia) pomonella (codling moth), larvicide, feeding/contact, diet cubes; conditions: 336 h, L1 larvae, 14 days after infestation, read-out: effect in at least one of the two categories (mortality or growth inhibition)
Procedure: Diet cubes coated with paraffin were sprayed with diluted test solutions in an application chamber. After drying off the treated cubes (10 replicates) were infested with 1 L1 larvae. Samples were incubated at 26-27° C. and checked 14 days after infestation for mortality and growth inhibition. The following compounds gave an effect of at least 80% in at least one of the two categories (mortality or growth inhibition) at an application rate of 50 ppm: […]

Chilo suppressalis = test: Example B1: activity against Chilo suppressalis (striped rice stemborer), artificial diet; conditions: 144 h, 200 ppm, L2 larvae, 6 days after infestation, read-out: control (at least one of mortality, anti-feedant effect, growth inhibition)
Procedure, shortened: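 Artificial diet treated with aqueous dilutions of DMSO stocks (10'000 ppm stock), dried, then infested with 6-8 L2 larvae per well. Mortality, anti-feeding and growth inhibition scored against untreated samples 6 days after infestation. Control counted when any category exceeds untreated.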

Euschistus heros = test: Example B3: activity against Euschistus heros (neotropical brown stink bug), soybean leaves; conditions: for percent effect (mortality or growth inhibition) at 200 ppm: 120 h, N2 nymphs, 5 days after infestation, read-out: effect in at least one of the two categories (mortality or growth inhibition)
Procedure: Soybean leaves on agar in 24-well microtiter plates were sprayed with aqueous test solutions prepared from 10′000 ppm DMSO stock solutions. After drying the leaves were infested with N2 nymphs. The samples were assessed for mortality and growth inhibition in comparison to untreated samples 5 days after infestation. The following compounds gave an effect of at least 80% in at least one of the two categories (mortality or growth inhibition) at an application rate of 200 ppm: […]

Plutella xylostella [3] = test: Example B5: activity against Plutella xylostella (diamond back moth), artificial diet, eggs; conditions: 192 h, 8 days after infestation, read-out: effect in at least one of the two categories (mortality or growth inhibition)
Procedure, shortened: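 Artificial diet in 24-well plates was treated with aqueous dilutions of DMSO stocks, dried, then infested with Plutella eggs. Mortality and growth inhibition were scored against untreated samples 8 days after infestation; application rate 200 ppm.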

Myzus persicae [4] = test: Example B7a: Myzus persicae feeding/contact activity, sunflower leaf discs; conditions: foliar, 144 h, mixed ages, 6 days after infestation
Procedure: Sunflower leaf discs were placed onto agar in a 24-well microtiter plate and sprayed with aqueous test solutions prepared from 10′000 ppm DMSO stock solutions. After drying, the leaf discs were infested with an aphid population of mixed ages. The samples were assessed for mortality 6 days after infestation.

Plutella xylostella [5] = test: B14b: Plutella xylostella (diamond back moth), larvicide L3, feeding/contact, Chinese cabbage
Source text: Activity of compounds P5, P17 and P21 according to the preparatory examples and of a compound from WO 21/083936 against Spodoptera littoralis (Example B6 above), Chilo suppressalis (Example B1 above), Diabrotica balteata (Example B14a below), Plutella xylostella (Example B14b below) and Pseudoplusia includens (Example B9 above) is summarized in Table B14. B14a: Diabrotica balteata (Corn root worm). Larvicide, feeding/contact 3 Corn seedlings were placed on wetted filter paper in plastic cups, and 3 ml of diluted test solutions were pipetted onto them. The cups were infested with 10 L2 larvae and checked for mortality and growth regulation 5 days after treatment. B14b: Plutella xylostella (Diamond back moth). Larvicide L3, feeding/contact Chinese cabbage plants were sprayed with diluted test solutions in an application chamber. Cut off leaves were placed into petri dishes with wetted filter paper and infested 1 day after application with 10 L3 larvae. Samples were assessed 4 days after infestation for mortality and growth regulation.

Tetranychus urticae = test: Example B8: activity against Tetranychus urticae (two-spotted spider mite), bean leaf discs; conditions: foliar, 192 h, mixed population (mobile stages), 8 days after infestation
Procedure: Bean leaf discs on agar in 24-well microtiter plates were sprayed with aqueous test solutions prepared from 10′000 ppm DMSO stock solutions. After drying the leaf discs were infested with a mite population of mixed ages. The samples were assessed for mortality on mixed population (mobile stages) 8 days after infestation.

| SMILES | percent control (mortality, anti-feedant effect or growth inhibition) at 200 ppm (Spodoptera littoralis) [%] | percent effect (mortality or growth inhibition) at 200 ppm (Diabrotica balteata) [%] | mortality at 12 ppm (Myzus persicae [1]) [%] | percent effect (mortality or growth inhibition) at 50 ppm (Pseudoplusia includens) [%] | percent effect (mortality or growth inhibition) at 50 ppm [2] [%] | percent control (mortality, anti-feedant effect or growth inhibition) at 200 ppm (Chilo suppressalis) [%] | percent effect (mortality or growth inhibition) at 200 ppm (Euschistus heros) [%] | percent effect (mortality or growth inhibition) at 200 ppm (Plutella xylostella [3]) [%] | mortality at 200 ppm (Myzus persicae [4]) [%] | mortality at 3 ppm (Pseudoplusia includens; Pseudoplusia includens) [%] | mortality at 200 ppm (Euschistus heros) [%] | mortality at 3 ppm (Plutella xylostella [5]) [%] | mortality at 200 ppm (Tetranychus urticae) [%] | mortality at 0.8 ppm (Pseudoplusia includens; Pseudoplusia includens, 0.8 ppm) [%] | mortality at 0.8 ppm (Plutella xylostella [5]; 0.8 ppm) [%] |
| --- | --- | --- | --- | --- | --- | --- | --- | --- | --- | --- | --- | --- | --- | --- | --- |
| C[C@H](Nc1ncnc2c(C(F)(F)F)cc(I)cc12)c1ncnn1-c1cc(C(N)=O)ncn1 [Compound P1, 6-[5-[(1S)-1-[[6-iodo-8-(trifluoromethyl)quinazolin-4-yl]amino]ethyl]-1,2,4-triazol-1-yl]pyrimidine-4-carboxamide] | ≥ 80 | ≥ 80 | ≥ 80 | ≥ 80 | ≥ 80 | ≥ 80 | ≥ 80 | ≥ 80 |  |  |  |  |  |  |  |
| C[C@H](Nc1ncnc2c(Cl)cc(I)cc12)c1ncnn1-c1cc(C(N)=O)ncn1 [Compound P2, 6-[5-[(1S)-1-[(8-chloro-6-iodo-quinazolin-4-yl)amino]ethyl]-1,2,4-triazol-1-yl]pyrimidine-4-carboxamide] | ≥ 80 | ≥ 80 | ≥ 80 | ≥ 80 | ≥ 80 | ≥ 80 |  | ≥ 80 | ≥ 80 |  |  |  |  |  |  |
| CNC(=O)c1cc(-n2ncnc2[C@H](C)Nc2ncnc3c(C(F)(F)F)cc(Cl)cc23)ncn1 [Compound P3, 6-[5-[(1S)-1-[[6-chloro-8-(trifluoromethyl)quinazolin-4-yl]amino]ethyl]-1,2,4-triazol-1-yl]-N-methyl-pyrimidine-4-carboxamide] | ≥ 80 | ≥ 80 | ≥ 80 | ≥ 80 | ≥ 80 | ≥ 80 | ≥ 80 | ≥ 80 |  |  |  |  |  |  |  |
| CNC(=O)c1cc(-n2ncnc2[C@H](C)N(C)c2ncnc3c(C(F)(F)F)cc(Cl)cc23)ncn1 [Compound P9, 6-[5-[(1S)-1-[[6-chloro-8-(trifluoromethyl)quinazolin-4-yl]-methyl-amino]ethyl]-1,2,4-triazol-1-yl]-N-methyl-pyrimidine-4-carboxamide] | ≥ 80 | ≥ 80 | ≥ 80 | ≥ 80 | ≥ 80 | ≥ 80 | ≥ 80 | ≥ 80 | ≥ 80 |  |  |  |  |  |  |
| C[C@H](Nc1ncnc2c(Br)cc(Br)cc12)c1ncnn1-c1cc(C(N)=O)ncn1 [Compound P10, 6-[5-[(1S)-1-[(6,8-dibromoquinazolin-4-yl)amino]ethyl]-1,2,4-triazol-1-yl]pyrimidine-4-carboxamide] | ≥ 80 | ≥ 80 | ≥ 80 | ≥ 80 | ≥ 80 | ≥ 80 |  | ≥ 80 |  | 80 | 0 | 100 |  |  |  |
| CNC(=O)c1cc(-n2ncnc2[C@H](C)Nc2ncnc3c(I)cc(Cl)cc23)ncn1 [Compound P14, 6-[5-[(1S)-1-[(6-chloro-8-iodo-quinazolin-4-yl)amino]ethyl]-1,2,4-triazol-1-yl]-N-methyl-pyrimidine-4-carboxamide] | ≥ 80 | ≥ 80 | ≥ 80 | ≥ 80 |  | ≥ 80 |  | ≥ 80 | ≥ 80 |  |  |  |  |  |  |
| C[C@H](Nc1ncnc2c(I)cc(Cl)cc12)c1ncnn1-c1ncc(C(N)=O)s1 [Compound P29, 2-[5-[(1S)-1-[(6-chloro-8-iodo-quinazolin-4-yl)amino]ethyl]-1,2,4-triazol-1-yl]thiazole-5-carboxamide] | ≥ 80 | ≥ 80 | ≥ 80 |  |  | ≥ 80 |  | ≥ 80 | ≥ 80 |  |  |  |  |  |  |
| C[C@@H](c1ncnn1-c1cc(C(=O)NCCC#N)ncn1)N(C)c1ncnc2c(C(F)(F)F)cc(Cl)cc12 [Compound P53, 6-[5-[(1S)-1-[[6-chloro-8-(trifluoromethyl)quinazolin-4-yl]-methyl-amino]ethyl]-1,2,4-triazol-1-yl]-N-(2-cyanoethyl)pyrimidine-4-carboxamide] | ≥ 80 | ≥ 80 | ≥ 80 | ≥ 80 | ≥ 80 | ≥ 80 |  | ≥ 80 |  |  |  |  |  |  |  |
| C[C@H](Nc1ncnc2c(C(F)(F)F)cc(Cl)cc12)c1ncnn1-c1cnc(C(=O)NCC#N)cn1 [Compound P71] | ≥ 80 | ≥ 80 | ≥ 80 |  |  | ≥ 80 |  | ≥ 80 |  |  |  |  | ≥ 80 |  |  |
| C[C@H](Nc1ncnc2c(C(F)(F)F)cc(Cl)cc12)c1ncnn1-c1ncccn1 [WO 21/083936 P.24, reference compound] |  |  |  |  |  |  |  |  |  |  | 0 |  |  | 0 | 5 |
| CC(Nc1ncnc2c(Br)cc(Br)cc12)c1ncnn1-c1ncccn1 (stereo not drawn) [WO 21/083936 P.29, reference compound] |  |  |  |  |  |  |  |  |  | 30 | 0 | 60 |  |  |  |
